Measurements from patent US20180077929A1, “METHODS AND SYSTEMS FOR TREATING MEDICAL DEVICES AND FLUIDS” (priority 2016, published 2018).
Marks after values point to notes of the source that are not given here.

Assay: Kinetics of removal of LPS with different agitation techniques and stearate salts
Format: biochemical
Settings: for Endotoxin Detected: 5 mL SRW, baseline 1,502 EU; for Percent (%) Removed: SRW baseline 1,502 EU
Protocol: 5 mL of SRW was added to each of the tubes. Each solution was tested for endotoxin removal after agitation based on with sonication, vortexing, or test tube rolling. Sonication samples were sonicated at each indicated time interval for 30 seconds at a magnitude of 30. Vortex samples were vortexed at each indicated time interval for 30 seconds at 2500 RPM. Rolling samples were constantly rolling at 10 rpm. The samples were tested on the MCS for endotoxin at 1 minute, 20 minutes, 40 minutes, 60 minutes, and 80 minutes.

Compound | Endotoxin Detected (Rolling, 1 minute) | Percent (%) Removed (Rolling, 1 minute) [%] | Endotoxin Detected (Rolling, 20 minutes) | Percent (%) Removed (Rolling, 20 minutes) [%] | Endotoxin Detected (Rolling, 40 minutes) | Percent (%) Removed (Rolling, 40 minutes) [%] | Endotoxin Detected (Rolling, 60 minutes) | Percent (%) Removed (Rolling, 60 minutes) [%] | Endotoxin Detected (Rolling, 80 minutes) | Percent (%) Removed (Rolling, 80 minutes) [%] | Endotoxin Detected (Sonication, 1 minute) [EU] | Percent (%) Removed (Sonication, 1 minute) [%] | Endotoxin Detected (Sonication, 20 minutes) [EU] | Percent (%) Removed (Sonication, 20 minutes) [%] | Endotoxin Detected (Sonication, 40 minutes) [EU] | Percent (%) Removed (Sonication, 40 minutes) [%] | Endotoxin Detected (Sonication, 60 minutes) [EU] | Percent (%) Removed (Sonication, 60 minutes) [%] | Endotoxin Detected (Sonication, 80 minutes) [EU] | Percent (%) Removed (Sonication, 80 minutes) [%] | further results
CCCCCCCCCCCCCCCCCC(=O)[O-].[Al+3].[OH-].[OH-] [Aluminum Monostearate] | 221* EU | 85.3 | 1,260 EU | 16.1 | 1,240 EU | 17.4 | 672 EU | 55.3 | 1,220 EU | 18.8 | 626 | 58.3 | 406 | 73 | 375 | 75 | 434 | 71.1 | 291 | 80.6 | Endotoxin Detected (Vortexing, 1 minute): 817 EU; Percent (%) Removed (Vortexing, 1 minute): 45.6%; Endotoxin Detected (Vortexing, 20 minutes): 849 EU; Percent (%) Removed (Vortexing, 20 minutes): 43.5%; Endotoxin Detected (Vortexing, 40 minutes): 786 EU; Percent (%) Removed (Vortexing, 40 minutes): 47.7%; Endotoxin Detected (Vortexing, 60 minutes): 801 EU; Percent (%) Removed (Vortexing, 60 minutes): 46.7%; Endotoxin Detected (Vortexing, 80 minutes): 757 EU; Percent (%) Removed (Vortexing, 80 minutes): 49.6%
Magnesium Stearate | 1,060 EU | 29.4 | 1,120 EU | 25.4 | 1,060 EU | 29.4 | 1,120 EU | 25.4 | 1,190 EU | 20.8 | 743 | 50.5 | 716 | 52.3 | 824 | 45.1 | 884 | 41.1 | 703 | 53.2 | Endotoxin Detected (Vortexing, 1 minute): 884 EU; Percent (%) Removed (Vortexing, 1 minute): 41.1%; Endotoxin Detected (Vortexing, 20 minutes): 1,000 EU; Percent (%) Removed (Vortexing, 20 minutes): 33.4%; Endotoxin Detected (Vortexing, 40 minutes): 901 EU; Percent (%) Removed (Vortexing, 40 minutes): 40%; Endotoxin Detected (Vortexing, 60 minutes): 958 EU; Percent (%) Removed (Vortexing, 60 minutes): 36.2%; Endotoxin Detected (Vortexing, 80 minutes): 1,060 EU; Percent (%) Removed (Vortexing, 80 minutes): 29.4%
